This is an account of results in US9089565B2, “Compositions and methods for causing neurite outgrowth” (MEDICAL RESEARCH COUNCIL, priority 2009, dated 2015).

Assay [1] has as its system NgR1. Put plainly: Phosphorylation of endogenous NgR1 (upper band, immunoblotting) in RA-treated SH-SY5Y cells. The assay is classed as cell-based, human. The conditions noted are these: incubated with BDNF in the presence of kinase inhibitor, 24 hours. On the procedure:
FIG. 1. BDNF promotes neurite outgrowth of RA-treated SH-SY5Y, and induces phosphorylation of NgR1. (A) SH-SY5Y cells were incubated with indicated reagents. Cell images were taken with phase contrast microscopy. (B) Number of cells extending neurite-like structures of more than 40 μm and total cell number were counted from images taken in (A). More than 300 cells were examined in each sample. The proportion of cells extending neurite-like structures of more than 40 μm was indicated as a percentage of total cell number. An average of three experiments is shown. Error bars indicate S. E. between experiments. Data were analysed with student's t test. (C) Whole cell extracts were prepared from RA-treated SH-SY5Y cells after incubation with or without BDNF for 24 hours, and were analysed by SDS-PAGE. Immunoblotting was performed with the indicated antibodies. (D) Whole cell extract prepared from cells treated with both RA and BDNF was incubated with the indicated reagents for 1 hour at 37° C. Immunoblotting was performed with anti-NgR1 antibody. (E) RA-treated SH-SY5Y cells were incubated with BDNF in the presence or absence of one of the following: PKC inhibitor—500 nM Gö6983 or Gö6976; PKA inhibitor—2 μM KT5720 or a PKA inhibitor peptide 14-22; or either 500 nM or 1 μM of a casein kinase inhibitor, for 24 hours. Whole cell extracts prepared from these cells were analysed by SDS-PAGE. Immunoblotting was performed with anti-NgR1 antibody.
SH-SY5Y cells were cultured in Ham's F12 medium with 10% foetal bovine serum at 37° C. in 5% CO2 and 95% air. Passage numbers between 15 and 21 were used in experiments described in this paper. Further passages induce spontaneous differentiation and cells tend to extend neurites without BDNF (data not shown). For RA treatment, the cells are seeded (20,000 cells/well) on collagen IV coated 4 well chamber slides. After 24 hours culture, medium was changed to Ham's F12 medium containing 10 μM RA and 10% foetal bovine serum. Medium was changed to fresh medium on day 3 and cells were used for experiments after 5 days culture. Encinas et al. (18) reported that RA-treated SH-SY5Y cells initiate apoptosis after withdrawal of serum only when the cells are cultured at low density. The cell density used in this paper was higher than that in the paper by Encinas et al. (18) and cell death due to depletion of serum or BDNF was not significant. In this paper, the SH-SY5Y cells treated with RA for 5 days are called RA-treated SH-SY5Y. For BDNF treatment, the RA-treated SH-SY5Y cells were washed with serum-free Ham's F12 medium and incubated with 25 ng/ml BDNF in serum-free Ham's F12 medium for 24 hours. As a control (RA alone), the RA-treated SH-SY5Y cells were incubated with serum-free Ham's F12 alone for 24 hours.
Cells were scraped off from dishes and washed with PBS twice, and then resuspended in PBS containing 0.1% Triton X100 and phosphatase inhibitor cocktail (Roche) and EDTA-free protease inhibitor cocktail (Roche). After incubation for 15 min on ice, samples were centrifuged at 14,000×g for 20 min at 4° C. The supernatants containing 30 μg of proteins were analysed by SDS-PAGE and blotted to PVDF membrane. The PVDF membrane was incubated in blocking buffer (5% skimmed milk, 0.4% Triton X-100 in PBS) for 1 hour, first antibody diluted in the blocking buffer and appropriate secondary antibody labelled with horse radish peroxidase. Bound antibodies were visualised with ECL or ECL Plus kit (GE healthcare).

Assay [2] has as its target T1, NgR1 (Homo sapiens, UniProt Q9BZR6, S281D).
T1 construct: The cDNAs of NgR1 (NM 023004, Nt. 184-1543); expressed in transfected cells; host or cells: COS7
T1 sequence (Q9BZR6 27-447 S281D): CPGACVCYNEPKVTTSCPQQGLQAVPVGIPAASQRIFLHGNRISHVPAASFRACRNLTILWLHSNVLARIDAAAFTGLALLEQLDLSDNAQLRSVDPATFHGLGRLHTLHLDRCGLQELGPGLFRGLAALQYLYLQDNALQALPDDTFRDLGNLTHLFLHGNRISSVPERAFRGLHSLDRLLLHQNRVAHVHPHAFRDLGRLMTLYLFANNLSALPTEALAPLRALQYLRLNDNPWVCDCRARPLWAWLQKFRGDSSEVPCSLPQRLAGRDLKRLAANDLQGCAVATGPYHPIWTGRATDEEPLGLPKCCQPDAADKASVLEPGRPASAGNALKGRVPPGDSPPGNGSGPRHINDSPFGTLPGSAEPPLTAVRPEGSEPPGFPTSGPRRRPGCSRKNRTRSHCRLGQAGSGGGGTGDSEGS
In words: Binding of OMgp to COS7 cells over-expressing NgR1. The conditions noted are these: 281S/D mutant NgR1. On the procedure:
(§1) FIG. 3. CK2 phosphorylates NgR1, and inhibits binding of the myelin-associated proteins to NgR1. (A) Myc-tagged wild type, 281S/A or 281S/D mutant NgR1 were over-expressed in COS7 cells. The over-expressed cells were incubated with either the combination of ATP and CK2, or NEP1-40 for 30 min at 37° C. After washing with PBS, cells were incubated with Hisx6-tagged Nogo-GFP for 3 hours at 4° C. The cells were fixed and immunofluorescence was performed with anti-Myc and anti-GFP antibodies. (B) COS7 cells over-expressing Myc-tagged wild type NgR1 were treated as described in (A). Proteins were extracted and the Myc-tagged NgR1 was immunoprecipitated with anti-Myc antibody. Co-precipitated Hisx6-tagged Nogo-GFP was detected by anti-GFP antibody. […] The biotinylated proteins were fractionated and analysed by SDS-PAGE. Biotinylated NgR1-Myc was detected with anti-Myc. antibody. […] Myc-tagged proteins were immunoprecipitated and analysed with SDS-PAGE. […]
(§2) After treatment with or without CK2, COS7 cells over-expressing wild type or mutant NgR were incubated with Hisx6 tagged Nogo-GFP (10 μg/ml), HA-MAG (50 μg/ml) or Hisx6 tagged OMgp (10 μg/ml) in PBS for 3 hours at 4° C. […] Biotinylated proteins were precipitated with streptavidin beads and were analysed by SDS-PAGE. Each sample fractionated from 5×10^6 cells was analysed by SDS-PAGE.

The target in assay [3] is T1, NgR1. In words: Binding of MAG to COS7 cells over-expressing NgR1. Conditions: 281S/D mutant NgR1. On the procedure:
as §1, §2

* marks the point of attachment. Myristoyl = CCCCCCCCCCCCCC(=O)*

Take `COc1ccc2c(c1)c(C1=C(c3c[nH]c4ccccc34)C(=O)NC1=O)cn2CCCN(C)C` [Gö6983]: the “level of the upper band of NgR1” value with NgR1 [1] is “Neither PKC inhibitors Gö6983 and Gö6976, nor PKA inhibitors KT 5720 and a PKA inhibitor peptide, show effects”.

Consider `Brc1c(Br)c(Br)c2[nH]nnc2c1Br` [CK2 inhibitor, 4,5,6,7-Tetrabromo-2-azabenzimidazole], for which the “level of the upper band of NgR1” value in the assay on NgR1 [1] was “decreased the upper band”.

For `Cn1c2ccccc2c2c3c(c4c5ccccc5n(CCC#N)c4c21)CNC3=O` [Gö6976], in the assay on NgR1 [1], the “level of the upper band of NgR1” value is “Neither PKC inhibitors Gö6983 and Gö6976, nor PKA inhibitors KT 5720 and a PKA inhibitor peptide, show effects”.

In the case of “PKA inhibitor peptide: myristoylated PKA inhibitor peptide 14-22 amide, purchased from Merck (Myristoyl-SGRTGRRNA-NH2; SMILES CCCCCCCCCCCCCC(=O)N[C@@H](CO)C(=O)NCC(=O)N[C@@H](CCCNC(=N)N)C(=O)N[C@H](C(=O)NCC(=O)N[C@@H](CCCNC(=N)N)C(=O)N[C@@H](CCCNC(=N)N)C(=O)N[C@@H](CC(N)=O)C(=O)N[C@@H](C)C(N)=O)[C@@H](C)O; UniProt P61925 14-22, looked up, fragment)”, in the assay with NgR1 [1], the “level of the upper band of NgR1” value is “Neither PKC inhibitors Gö6983 and Gö6976, nor PKA inhibitors KT 5720 and a PKA inhibitor peptide, show effects”.

On to `CCCCCCOC(=O)[C@]1(O)C[C@@H]2O[C@@]1(C)n1c3ccccc3c3c4c(c5c6ccccc6n2c5c31)C(=O)NC4` [KT 5720], for which, in the assay with NgR1 [1], the “level of the upper band of NgR1” value is “Neither PKC inhibitors Gö6983 and Gö6976, nor PKA inhibitors KT 5720 and a PKA inhibitor peptide, show effects”.

B1: OMgp: oligodendrocyte myelin glycoprotein, His-tagged, purchased from R&D (protein, UniProt P23515 25-417, looked up)
Oligodendrocyte-myelin …: ICPLQCICTERHRHVDCSGRNLSTLPSGLQENIIHLNLSYNHFTDLHNQLTQYTNLRTLDISNNRLESLPAHLPRSLWNMSAANNNIKLLDKSDTAYQWNLKYLDVSKNMLEKVVLIKNTLRSLEVLNLSSNKLWTVPTNMPSKLHIVDLSNNSLTQILPGTLINLTNLTHLYLHNNKFTFIPDQSFDQLFQLQEITLYNNRWSCDHKQNITYLLKWMMETKAHVIGTPCSTQISSLKEHNMYPTPSGFTSSLFTVSGMQTVDTINSLSVVTQPKVTKIPKQYRTKETTFGATLSKDTTFTSTDKAFVPYPEDTSTETINSHEAAAATLTIHLQDGMVTNTSLTSSTKSSPTPMTLSITSGMPNNFSEMPQQSTTLNLWREETTTNVKTPLPS
modifications: His tag
notes: oligodendrocyte myelin glycoprotein, His-tagged, purchased from R&D
As for B1, in the assay with NgR1 [2], the “binding of ligand to cells” value was “Neither OMgp nor MAG bound”.

B2: MAG: human myelin-associated glycoprotein, HA-tagged, purified from COS7 conditioned medium (protein)
chain: GHWGAWMPSSISAFEGTCVSIPCRFDFPDELRPAVVHGVWYFNSPYPKNYPPVVFKSRTQVVHESFQGRSRLLGDLGLRNCTLLLSNVSPELGGKYYFRGDLGGYNQYTFSEHSVLDIVNTPNIVVPPEVVAGTEVEVSCMVPDNCPELRPELSWLGHEGLGEPAVLGRLREDEGTWVQVSLLHFVPTREANGHRLGCQASFPNTTLQFEGYASMDVKYPPVIVEMNSSVEAIEGSHVSLLCGADSNPPPLLTWMRDGTVLREAVAESLLLELEEVTPAEDGVYACLAENAYGQDNRTVGLSVMYAPWKPTVNGTMVAVEGETVSILCSTQSNPDPILTIFKEKQILSTVIYESELQLELPAVSPEDDGEYWCVAENQYGQRATAFNLSVEFAPVLLLESHCAAARDTVQCLCVVKSNPEPSVAFELPSRNVTVNESEREFVYSERSGLVLTSILTLRGQAQAPPRVICTARNLYGAKSLELPFQG
Regarding B2, the “binding of ligand to cells” value with NgR1 [3] is recorded as “Neither OMgp nor MAG bound”.
